In the kinase profiling compilation of Christmann-Franck et al. (2016):

What was measured:
Assay in all cases: KINOMEscan competition binding
Settings in all cases: compound 10.0 µM
NTRK1 (human) = NTRK1 (human) (UniProt P04629)
MAPK13 (human) = MAPK13 (human) (UniProt O15264)
NEK9 (human) = NEK9 (human) (UniProt Q8TD19)
PIM3 (human) = PIM3 (human) (UniProt Q86V86)
ACVR2A (human) = ACVR2A (human) (UniProt P27037)
SRPK3 (human) = SRPK3 (human) (UniProt Q9UPE1)
WEE2 (human) = WEE2 (human) (UniProt P0C1S8)
EPHA5 (human) = EPHA5 (human) (UniProt P54756)
PIK3C2B (human) = PIK3C2B (human) (UniProt O00750)
TAOK1 (human) = TAOK1 (human) (UniProt Q7L7X3)
MLTK (human) = MLTK (human) (UniProt Q9NYL2)
CHEK2 (human) = CHEK2 (human) (UniProt O96017)
MAPK9 (human) = MAPK9 (human) (UniProt P45984)
CAMK1G (human) = CAMK1G (human) (UniProt Q96NX5)
DYRK1B (human) = DYRK1B (human) (UniProt Q9Y463)
KDR (human) = KDR (human) (UniProt P35968)
TSSK1B (human) = TSSK1B (human) (UniProt Q9BXA7)
ACVR1 (human) = ACVR1 (human) (UniProt Q04771)
EPHB1 (human) = EPHB1 (human) (UniProt P54762)
RIOK2 (human) = RIOK2 (human) (UniProt Q9BVS4)
RIPK4 (human) = RIPK4 (human) (UniProt P57078)
MAP4K4 (human) = MAP4K4 (human) (UniProt O95819)
YES1 (human) = YES1 (human) (UniProt P07947)
RPS6KA6 KD1 (human) = RPS6KA6 KD1 (human) (UniProt Q9UK32)
MARK3 (human) = MARK3 (human) (UniProt P27448)
ALK (human) = ALK (human) (UniProt Q9UM73)
PTK6 (human) = PTK6 (human) (UniProt Q13882)
AKT1 (human) = AKT1 (human) (UniProt P31749)
MAPK10 (human) = MAPK10 (human) (UniProt P53779)
NTRK2 (human) = NTRK2 (human) (UniProt Q16620)
GSK3A (human) = GSK3A (human) (UniProt P49840)
IGF1R (human) = IGF1R (human) (UniProt P08069)
CDC42BPG (human) = CDC42BPG (human) (UniProt Q6DT37)
TXK (human) = TXK (human) (UniProt P42681)
FGFR2 (human) = FGFR2 (human) (UniProt P21802)
NEK6 (human) = NEK6 (human) (UniProt Q9HC98)
PIK3CB (human) = PIK3CB (human) (UniProt P42338)
AURKC (human) = AURKC (human) (UniProt Q9UQB9)
[1] = tested on: KIT (human), P10721 [V559D]
MKNK2 (human) = MKNK2 (human) (UniProt Q9HBH9)

Sequence of EPHB1 (human) (P54762 whole entry, looked up): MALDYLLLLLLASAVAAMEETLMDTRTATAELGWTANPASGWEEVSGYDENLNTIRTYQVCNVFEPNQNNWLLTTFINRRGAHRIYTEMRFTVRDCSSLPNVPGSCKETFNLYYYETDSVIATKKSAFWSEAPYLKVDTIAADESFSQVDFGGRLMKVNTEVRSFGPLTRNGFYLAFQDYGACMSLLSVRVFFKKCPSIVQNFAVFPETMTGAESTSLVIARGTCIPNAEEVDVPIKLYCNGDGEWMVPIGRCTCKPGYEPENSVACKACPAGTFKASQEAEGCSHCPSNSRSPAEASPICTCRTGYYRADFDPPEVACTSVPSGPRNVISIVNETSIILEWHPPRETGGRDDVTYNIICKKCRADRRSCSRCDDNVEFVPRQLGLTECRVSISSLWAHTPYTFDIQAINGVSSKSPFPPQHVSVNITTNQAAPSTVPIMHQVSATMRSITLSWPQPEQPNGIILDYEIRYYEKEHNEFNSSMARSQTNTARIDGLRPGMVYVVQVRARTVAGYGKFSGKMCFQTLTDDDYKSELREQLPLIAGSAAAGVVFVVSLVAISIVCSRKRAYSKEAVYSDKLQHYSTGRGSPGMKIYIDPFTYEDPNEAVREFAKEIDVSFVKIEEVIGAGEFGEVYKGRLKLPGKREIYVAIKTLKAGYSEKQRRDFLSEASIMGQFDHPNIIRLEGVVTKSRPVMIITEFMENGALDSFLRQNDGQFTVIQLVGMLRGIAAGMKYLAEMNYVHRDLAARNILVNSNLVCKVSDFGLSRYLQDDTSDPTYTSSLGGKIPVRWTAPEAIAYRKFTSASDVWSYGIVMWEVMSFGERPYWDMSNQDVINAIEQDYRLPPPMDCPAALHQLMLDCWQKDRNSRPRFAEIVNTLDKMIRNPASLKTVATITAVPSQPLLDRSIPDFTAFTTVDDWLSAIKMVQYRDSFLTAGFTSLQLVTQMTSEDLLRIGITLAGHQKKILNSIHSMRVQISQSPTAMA
Sequence of NEK6 (human) (Q9HC98 whole entry, looked up): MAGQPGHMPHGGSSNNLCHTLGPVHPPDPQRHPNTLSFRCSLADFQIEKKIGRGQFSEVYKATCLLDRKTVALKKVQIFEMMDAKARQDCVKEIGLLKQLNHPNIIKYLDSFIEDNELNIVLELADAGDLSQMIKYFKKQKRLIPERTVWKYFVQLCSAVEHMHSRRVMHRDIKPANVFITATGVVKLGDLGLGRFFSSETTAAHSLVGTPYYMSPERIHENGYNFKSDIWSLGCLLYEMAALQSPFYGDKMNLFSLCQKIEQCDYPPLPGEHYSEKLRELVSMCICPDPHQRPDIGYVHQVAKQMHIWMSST
Sequence of CDC42BPG (human) (Q6DT37 whole entry, looked up): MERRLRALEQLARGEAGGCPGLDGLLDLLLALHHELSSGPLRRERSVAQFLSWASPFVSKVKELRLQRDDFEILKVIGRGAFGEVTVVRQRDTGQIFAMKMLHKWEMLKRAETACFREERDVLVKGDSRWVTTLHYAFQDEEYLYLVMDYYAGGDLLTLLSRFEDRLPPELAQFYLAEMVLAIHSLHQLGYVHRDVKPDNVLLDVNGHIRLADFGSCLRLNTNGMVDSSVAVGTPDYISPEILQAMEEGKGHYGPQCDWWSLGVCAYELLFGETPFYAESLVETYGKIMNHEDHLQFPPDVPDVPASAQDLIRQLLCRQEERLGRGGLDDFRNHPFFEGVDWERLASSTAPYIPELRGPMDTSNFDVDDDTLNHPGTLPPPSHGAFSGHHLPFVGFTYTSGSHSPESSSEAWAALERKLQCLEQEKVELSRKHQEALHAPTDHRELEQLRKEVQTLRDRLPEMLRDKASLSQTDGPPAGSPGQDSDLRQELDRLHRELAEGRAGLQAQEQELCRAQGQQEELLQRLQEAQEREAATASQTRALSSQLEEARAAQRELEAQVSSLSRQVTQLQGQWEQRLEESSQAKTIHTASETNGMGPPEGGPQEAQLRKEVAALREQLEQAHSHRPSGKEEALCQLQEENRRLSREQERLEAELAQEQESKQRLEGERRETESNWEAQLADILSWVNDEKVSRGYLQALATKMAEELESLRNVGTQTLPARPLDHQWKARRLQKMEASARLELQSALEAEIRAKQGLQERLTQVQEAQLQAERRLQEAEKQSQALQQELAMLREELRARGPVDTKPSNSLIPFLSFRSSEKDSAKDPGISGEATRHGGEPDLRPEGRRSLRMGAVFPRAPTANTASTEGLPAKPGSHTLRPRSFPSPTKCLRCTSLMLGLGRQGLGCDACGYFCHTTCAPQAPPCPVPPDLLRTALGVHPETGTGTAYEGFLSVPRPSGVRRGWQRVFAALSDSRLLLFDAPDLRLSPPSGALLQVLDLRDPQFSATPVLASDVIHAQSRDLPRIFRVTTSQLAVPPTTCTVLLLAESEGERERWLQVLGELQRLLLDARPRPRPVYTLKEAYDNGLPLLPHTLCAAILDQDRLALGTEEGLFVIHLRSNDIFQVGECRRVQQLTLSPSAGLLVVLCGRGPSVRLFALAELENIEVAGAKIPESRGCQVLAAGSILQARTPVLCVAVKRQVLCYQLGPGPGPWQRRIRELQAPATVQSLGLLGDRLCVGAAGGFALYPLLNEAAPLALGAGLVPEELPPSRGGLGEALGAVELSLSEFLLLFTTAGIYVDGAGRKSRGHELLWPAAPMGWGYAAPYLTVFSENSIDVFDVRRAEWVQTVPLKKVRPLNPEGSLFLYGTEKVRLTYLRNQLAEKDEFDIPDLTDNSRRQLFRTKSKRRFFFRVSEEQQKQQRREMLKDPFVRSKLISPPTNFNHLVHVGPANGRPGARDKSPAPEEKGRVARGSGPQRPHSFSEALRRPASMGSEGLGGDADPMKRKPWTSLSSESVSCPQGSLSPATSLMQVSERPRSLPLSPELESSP
Sequence of NEK9 (human) (Q8TD19 whole entry, looked up): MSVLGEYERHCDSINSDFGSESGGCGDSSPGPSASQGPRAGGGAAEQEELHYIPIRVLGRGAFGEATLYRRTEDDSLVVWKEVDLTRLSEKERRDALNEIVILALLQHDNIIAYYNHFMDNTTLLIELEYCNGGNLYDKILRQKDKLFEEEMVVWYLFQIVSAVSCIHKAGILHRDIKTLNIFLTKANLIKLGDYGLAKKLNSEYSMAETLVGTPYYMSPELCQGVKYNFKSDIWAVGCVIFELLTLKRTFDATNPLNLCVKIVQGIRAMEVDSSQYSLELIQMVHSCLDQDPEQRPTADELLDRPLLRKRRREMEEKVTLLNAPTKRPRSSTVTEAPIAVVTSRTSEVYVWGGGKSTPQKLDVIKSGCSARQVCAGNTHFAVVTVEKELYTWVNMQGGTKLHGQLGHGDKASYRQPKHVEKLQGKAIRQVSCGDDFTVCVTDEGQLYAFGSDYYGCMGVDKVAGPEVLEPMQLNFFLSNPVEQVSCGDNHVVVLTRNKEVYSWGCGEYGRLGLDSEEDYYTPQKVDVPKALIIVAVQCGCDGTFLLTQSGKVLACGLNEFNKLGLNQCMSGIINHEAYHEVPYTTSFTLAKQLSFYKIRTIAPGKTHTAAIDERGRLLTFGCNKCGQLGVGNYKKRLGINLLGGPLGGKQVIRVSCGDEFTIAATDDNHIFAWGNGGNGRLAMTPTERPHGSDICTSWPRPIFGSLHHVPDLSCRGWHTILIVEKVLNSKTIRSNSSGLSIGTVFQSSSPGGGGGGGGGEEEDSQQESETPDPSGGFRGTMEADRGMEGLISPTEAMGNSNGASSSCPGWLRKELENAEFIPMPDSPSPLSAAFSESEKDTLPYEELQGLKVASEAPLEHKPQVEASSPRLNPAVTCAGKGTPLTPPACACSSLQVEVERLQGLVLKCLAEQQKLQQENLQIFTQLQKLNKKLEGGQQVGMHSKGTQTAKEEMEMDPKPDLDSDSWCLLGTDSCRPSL
Sequence of DYRK1B (human) (Q9Y463 whole entry, looked up): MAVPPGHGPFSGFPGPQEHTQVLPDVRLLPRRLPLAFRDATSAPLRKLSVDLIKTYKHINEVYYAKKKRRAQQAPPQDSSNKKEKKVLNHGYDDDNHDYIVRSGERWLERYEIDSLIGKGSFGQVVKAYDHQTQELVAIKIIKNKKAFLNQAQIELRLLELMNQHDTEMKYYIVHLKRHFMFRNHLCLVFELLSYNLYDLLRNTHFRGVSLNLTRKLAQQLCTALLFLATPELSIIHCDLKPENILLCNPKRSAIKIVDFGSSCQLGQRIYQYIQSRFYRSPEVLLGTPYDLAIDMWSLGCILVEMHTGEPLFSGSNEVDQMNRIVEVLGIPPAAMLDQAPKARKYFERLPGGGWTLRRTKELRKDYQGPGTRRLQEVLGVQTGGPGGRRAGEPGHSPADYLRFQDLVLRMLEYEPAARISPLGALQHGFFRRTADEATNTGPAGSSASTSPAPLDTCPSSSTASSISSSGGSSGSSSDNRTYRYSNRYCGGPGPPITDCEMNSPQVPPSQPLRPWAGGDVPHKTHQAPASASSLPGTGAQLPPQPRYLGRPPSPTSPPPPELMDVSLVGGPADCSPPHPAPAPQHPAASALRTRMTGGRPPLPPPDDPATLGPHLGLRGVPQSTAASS
Sequence of AKT1 (human) (P31749 whole entry, looked up): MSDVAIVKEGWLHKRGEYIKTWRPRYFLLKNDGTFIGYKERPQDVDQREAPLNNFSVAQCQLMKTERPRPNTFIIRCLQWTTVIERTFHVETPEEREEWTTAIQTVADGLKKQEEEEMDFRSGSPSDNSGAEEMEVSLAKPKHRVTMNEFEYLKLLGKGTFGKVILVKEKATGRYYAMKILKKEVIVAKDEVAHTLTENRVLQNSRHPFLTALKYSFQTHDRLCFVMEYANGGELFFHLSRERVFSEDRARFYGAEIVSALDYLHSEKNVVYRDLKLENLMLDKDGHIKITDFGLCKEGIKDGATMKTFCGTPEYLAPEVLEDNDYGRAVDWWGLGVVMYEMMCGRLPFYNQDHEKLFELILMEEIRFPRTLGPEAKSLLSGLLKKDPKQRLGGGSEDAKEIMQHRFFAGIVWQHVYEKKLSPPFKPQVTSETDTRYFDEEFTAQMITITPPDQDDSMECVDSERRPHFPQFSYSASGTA

Row | SMILES | kinase still bound, per cent of control (NTRK1 (human)) [%] | kinase still bound, per cent of control (MAPK13 (human)) [%] | kinase still bound, per cent of control (NEK9 (human)) [%] | kinase still bound, per cent of control (PIM3 (human)) [%] | kinase still bound, per cent of control (ACVR2A (human)) [%] | kinase still bound, per cent of control (SRPK3 (human)) [%] | kinase still bound, per cent of control (WEE2 (human)) [%] | kinase still bound, per cent of control (EPHA5 (human)) [%] | kinase still bound, per cent of control (PIK3C2B (human)) [%] | kinase still bound, per cent of control (MLTK (human)) [%] | kinase still bound, per cent of control (CHEK2 (human)) [%] | kinase still bound, per cent of control (MAPK9 (human)) [%] | kinase still bound, per cent of control (CAMK1G (human)) [%] | kinase still bound, per cent of control (DYRK1B (human)) [%] | kinase still bound, per cent of control (TSSK1B (human)) [%] | kinase still bound, per cent of control (ACVR1 (human)) [%] | kinase still bound, per cent of control (EPHB1 (human)) [%] | kinase still bound, per cent of control (RIOK2 (human)) [%] | kinase still bound, per cent of control (RIPK4 (human)) [%] | kinase still bound, per cent of control (MAP4K4 (human)) [%] | other results
1 | Nc1ccc(-c2ccc3ncc4ccc(=O)n(-c5cccc(C(F)(F)F)c5)c4c3c2)cn1 | 57 | 48 | 100 | 100 | 95 | 95 | 100 | 100 | 37 | 65 | 100 | 89 | 88 | 97 | 100 | 86 | 100 | 70 | 100 | 71 | kinase still bound, per cent of control (TAOK1 (human)): 62%; kinase still bound, per cent of control (KDR (human)): 100%; kinase still bound, per cent of control (YES1 (human)): 100%; kinase still bound, per cent of control (RPS6KA6 KD1 (human)): 80%; kinase still bound, per cent of control (MARK3 (human)): 100%; kinase still bound, per cent of control (ALK (human)): 100%; kinase still bound, per cent of control (PTK6 (human)): 100%; kinase still bound, per cent of control (AKT1 (human)): 100%; kinase still bound, per cent of control (MAPK10 (human)): 78%; kinase still bound, per cent of control (NTRK2 (human)): 72%; kinase still bound, per cent of control (GSK3A (human)): 100%; kinase still bound, per cent of control (IGF1R (human)): 100%; kinase still bound, per cent of control (CDC42BPG (human)): 86%; kinase still bound, per cent of control (TXK (human)): 100%; kinase still bound, per cent of control (FGFR2 (human)): 90%; kinase still bound, per cent of control (NEK6 (human)): 92%; kinase still bound, per cent of control (PIK3CB (human)): 6.6%; kinase still bound, per cent of control (AURKC (human)): 100%; kinase still bound, per cent of control [1]: 55%
2 | CCCS(=O)(=O)Nc1ccc(F)c(C(=O)c2c[nH]c3ncc(-c4ccc(Cl)cc4)cc23)c1F | 90 | 100 | 98 | 100 | 100 | 100 | 100 | 98 | 100 | 7.4 | 100 | 50 | 92 | 100 | 99 | 100 | 100 | 100 | 91 | 48 | kinase still bound, per cent of control (TAOK1 (human)): 72%; kinase still bound, per cent of control (KDR (human)): 31%; kinase still bound, per cent of control (YES1 (human)): 18%; kinase still bound, per cent of control (RPS6KA6 KD1 (human)): 82%; kinase still bound, per cent of control (MARK3 (human)): 61%; kinase still bound, per cent of control (ALK (human)): 62%; kinase still bound, per cent of control (PTK6 (human)): 0.75%; kinase still bound, per cent of control (AKT1 (human)): 100%; kinase still bound, per cent of control (MAPK10 (human)): 91%; kinase still bound, per cent of control (NTRK2 (human)): 78%; kinase still bound, per cent of control (GSK3A (human)): 54%; kinase still bound, per cent of control (IGF1R (human)): 93%; kinase still bound, per cent of control (CDC42BPG (human)): 34%; kinase still bound, per cent of control (TXK (human)): 59%; kinase still bound, per cent of control (FGFR2 (human)): 64%; kinase still bound, per cent of control (NEK6 (human)): 100%; kinase still bound, per cent of control (PIK3CB (human)): 100%; kinase still bound, per cent of control [1]: 0.05%
3 | OCCCNc1cc(-c2ccnc(Nc3cccc(Cl)c3)n2)ccn1 | 100 | 100 | 100 | 100 | 100 | 100 | 100 | 100 | 100 | 100 | 100 | 100 | 100 | 4 | 100 | 100 | 100 | 100 | 100 | 100 | kinase still bound, per cent of control (MKNK2 (human)): 100%; kinase still bound, per cent of control (KDR (human)): 100%; kinase still bound, per cent of control (YES1 (human)): 100%; kinase still bound, per cent of control (RPS6KA6 KD1 (human)): 100%; kinase still bound, per cent of control (MARK3 (human)): 100%; kinase still bound, per cent of control (ALK (human)): 100%; kinase still bound, per cent of control (PTK6 (human)): 100%; kinase still bound, per cent of control (AKT1 (human)): 100%; kinase still bound, per cent of control (MAPK10 (human)): 100%; kinase still bound, per cent of control (NTRK2 (human)): 100%; kinase still bound, per cent of control (GSK3A (human)): 20%; kinase still bound, per cent of control (IGF1R (human)): 100%; kinase still bound, per cent of control (CDC42BPG (human)): 100%; kinase still bound, per cent of control (TXK (human)): 100%; kinase still bound, per cent of control (FGFR2 (human)): 100%; kinase still bound, per cent of control (NEK6 (human)): 100%; kinase still bound, per cent of control (PIK3CB (human)): 100%; kinase still bound, per cent of control (AURKC (human)): 100%; kinase still bound, per cent of control [1]: 100%
4 | O=C(O)c1ccc(Nc2ncc3c(n2)-c2ccc(Cl)cc2C(c2c(F)cccc2F)=NC3)cc1 | 35 | 100 | 100 | 42 | 95 | 100 | 89 | 1.5 | 93 | 93 | 100 | 57 | 79 | 91 | 90 | 100 | 2.2 | 99 | 100 | 86 | kinase still bound, per cent of control (MKNK2 (human)): 84%; kinase still bound, per cent of control (TAOK1 (human)): 71%; kinase still bound, per cent of control (YES1 (human)): 3.9%; kinase still bound, per cent of control (RPS6KA6 KD1 (human)): 36%; kinase still bound, per cent of control (MARK3 (human)): 100%; kinase still bound, per cent of control (ALK (human)): 48%; kinase still bound, per cent of control (PTK6 (human)): 77%; kinase still bound, per cent of control (AKT1 (human)): 100%; kinase still bound, per cent of control (MAPK10 (human)): 100%; kinase still bound, per cent of control (NTRK2 (human)): 30%; kinase still bound, per cent of control (GSK3A (human)): 100%; kinase still bound, per cent of control (IGF1R (human)): 73%; kinase still bound, per cent of control (CDC42BPG (human)): 92%; kinase still bound, per cent of control (TXK (human)): 46%; kinase still bound, per cent of control (FGFR2 (human)): 7.7%; kinase still bound, per cent of control (NEK6 (human)): 100%; kinase still bound, per cent of control (PIK3CB (human)): 100%; kinase still bound, per cent of control (AURKC (human)): 20%; kinase still bound, per cent of control [1]: 63%
